Test results published in patent publication US20220267394A1, “COMPOUNDS FOR INDUCING TISSUE FORMATION AND USES THEREOF” (HISTIDE AG, priority 2015, published 2022).
Where no end group is shown, it is not given here.

Test system: hMSCs
Test: Loss of stemness: STRO-1 expression by immunostaining
Assay type: cell-based, human
Procedure: The cells were first fixed for 20 min with 4% paraformaldehyde/PBS at 4° C. After fixation, the cells were permeabilized in PBS containing 1% Triton X-100 for 15 min. Runx2, Osterix, Stro-1, Vinculin, Phalloidin, Osteopontin, Sox2, Sox9 antibodies were visualized by treating the cells with 1% (v/v) specific monoclonal antibodies for 1 hour at 37° C. Then the samples were incubated with Alexa Fluor® 568 or 647 (F(ab′)2 fragment of IgG(H+L)) during 30 min at room temperature. The cell nuclei were counterstained in 20 ng/mL DAPI for 10 min at room temperature.
For this type of quantification the freeware image analysis ImageJ® software was used. The raw image was first converted to an 8-bit file, and then the unsharp mask feature was used (settings 1:0.2) to remove the image background (rolling ball radius 10). After smoothing, the resulting image, which appears similar to the original photomicrograph but with minimal background, was then converted to a binary image by setting a threshold. Threshold values were determined empirically by selecting a setting, which gave the most accurate binary image for a subset of randomly selected photomicrographs. The cell area was determined by manual delineation on raw fluorescent images. Total contact area and mean contact area per cell were calculated by “analyse particules” in ImageJ®. A minimum of 30 cells per condition were analyzed. Stro-1, CD-34+, and CD-105 expressions were determined using this procedure.
hMSCs were cultured on conventional cell culture plastic plates with or without the presence in the cell culture media of different GFR-binding compounds as described herein (SEQ ID NO: 50 to 88) in solution. […] This was probed by Stro-1 immunostaining after cell fixation as described in the Methods section. The quantification of Stro-1 positive contact numbers and areas was performed as described in the Methods section. A minimum of 30 cells per condition were analyzed. Stro-1 positive marrow cells are multipotential and capable of differentiating into multiple mesenchymal lineages including stromal cells with a phenotype resembling vascular smooth muscle cells that can support hematopoiesis, adipocytes, osteoblasts, and chondrocytes.
Using the method detailed in the description, the RMSD of 57 previously reported peptide sequences have been determined (Table 6) and correlated with the expression of STRO-1 in solution. […] One should note that it is commonly admitted that the expression of STRO-1 in a cell is indicative of a cell that is in a substantially non-differentiated state and the decrease of its expression of at least about 20% is indicative of a cell that has started a process of differentiation but which may not result in the differentiation of the cell. A decrease of more than 50% would be indicative of the presence of a significant shift towards a differentiated state. A decrease of more than 70% would be indicative of the presence of a very important shift towards a differentiated state. A sustained decrease (e.g. for at least 96 h) of more than 50% or 70% would be indicative of the presence of an even more important shift towards a differentiated state.
Likewise, using the method detailed in the description, the RMSD of 75 GFR-binding peptide sequence representatives of the invention have been determined (Table 8) and correlated with the expression of STRO-1. SEQ ID NO: 1 to 49 were tested in combination with a bioactive carrier as defined above in the Examples Section (i.e. titanium, ceramics, collagen, etc. . . . ), whereas SEQ ID NO: 2242 to 2267 were tested in solution.

[1] = Table 8, SEQ ID NO: 1 to 49 tested in combination with a bioactive carrier (titanium, ceramics, collagen, etc.)
[2] = Table 8, SEQ ID NO: 2242 to 2267 tested in solution
[3] = Table 6, previously reported peptides in solution, 400 ng/mL

| Substance | STRO-1 expression (%) [1] [%] | STRO-1 expression (%) [3] [%] | other results |
| --- | --- | --- | --- |
| 19 (CPKPSSAPTQLSAISTLYLDDSSNVILKNYQMIVVRA; GFR-binding peptide) [compound 19] | 20 | – | – |
| 2264 (KIPKASSVPQELEPLPIVYYDENEKVVEQLSNDMVRSGSGSR; GFR-binding peptide) [compound 2264] | – | – | STRO-1 expression (%) [2]: 24% |
| 2210 (SRVLPIVVQGYVPVQDTKFLGIYYVIGPIIARVILSSSSAISSLNKS; Peptide reported in US20040031072, SEQ ID NO:188005) [compound 2210] | – | 84 | – |
| 2162 (ENVNLKKYRNMIVKSCGCH; Peptide reported in US20040039543, SEQ ID NO:107) [compound 2162] | – | 97 | – |
| 7 (CTVPKPXXAPTQLSPISVLYKDDSSNVILKYHYNMVVRAXGXH; GFR-binding peptide; MOD_RES (7), (8), (40), (42): Xaa is C or S) [compound 7] | 18 | – | – |
| 2189 (SSVPAVCSATSATGPYSTATNTVWFDVYATTVY; Peptide reported in EP1687419, SEQ ID NO:46) [compound 2189] | – | 91 | – |
| 39 (CVPTEESNITMQIMRIKPHQGQHIGEMSFL; GFR-binding peptide) [compound 39] | 16 | – | – |
| 25 (GTPGPAPTQLSPISVLYKDDSSNVILKYHY; GFR-binding peptide) [compound 25] | 23 | – | – |
| 2204 (KIPKPSSAPTELSAISMLC; Peptide reported in WO2009151288, SEQ ID NO:6) [compound 2204] | – | 82 | – |
| 2161 (DPLPIIYYVGRNVRVEQLSNMVVRACKCS; Comparative sequence) [compound 2161] | – | 97 | – |
| 24 (GTPGPPSSAPTQLSATSVLYYDDSSNVILRKHRMIVKS; GFR-binding peptide) [compound 24] | 21 | – | – |
| 2263 (ASASPSSAPVDLKPLSMLYVIGKTPKIDHHKDMIVEESKSS; GFR-binding peptide) [compound 2263] | – | – | STRO-1 expression (%) [2]: 16% |
| 2183 (TPTVVSATSL; Peptide reported in US20150153356, SEQ ID NO:51419) [compound 2183] | – | 98 | – |
| 2201 (KIPKPSSAPTELSAISMC; Peptide reported in WO2009151288, SEQ ID NO:7) [compound 2201] | – | 78 | – |
| 2243 (VPEAASSLSMLFFEIVRKKPIFLKVYPAATVE; GFR-binding peptide) [compound 2243] | – | – | STRO-1 expression (%) [2]: 19% |
| 2198 (APTKLNAISVLYFDDSSNVILKKYRNMIVKS; Peptide reported in US20120244575, SEQ ID NO:4530) [compound 2198] | – | 84 | – |
| 2261 (NDEGLESVPTGQSPISILYIRIKPHQGQHYKQYELEEHSQSESR; GFR-binding peptide) [compound 2261] | – | – | STRO-1 expression (%) [2]: 17% |
| 3 (CASASPSSVSQDLSAISTLYLIGKTPKILKNYQMIVKSSKSS; not fully specified; ends and bridges not checked) [compound 3] | 18 | – | – |
| 2171 (SHQSAGDSIKSPARHSAPTHQEPLPD; Peptide reported in WO2013040142, SEQ ID NO:3137100) [compound 2171] | – | 91 | – |
| 2254 (VPTMMSNITTQIMRIKPHQGQHIGEMSMMQHN; GFR-binding peptide) [compound 2254] | – | – | STRO-1 expression (%) [2]: 19% |

| Substance | STRO-1 expression (%) [1] [%] | STRO-1 expression (%) [3] [%] | other results |
| --- | --- | --- | --- |
| 2200 (FDSRVLKSAISFKENIIF; Peptide reported in WO2013040142, SEQ ID NO:2935795) [compound 2200] | – | 89 | – |
| 2163 (TPTYSRPVQKAELTR; Peptide reported in US20130332133, SEQ ID NO:16645) [compound 2163] | – | 97 | – |
| 2196 (MAAQDEWRDAITLTMGRDLKKVPQHLNAISVIDPVT; Peptide reported in US20120246748, SEQ ID NO:111359) [compound 2196] | – | 83 | – |
| 2251 (APVAAKPLSMLYVDKGVVTYDHHKDAAVEE; GFR-binding peptide) [compound 2251] | – | – | STRO-1 expression (%) [2]: 22% |
| 9 (CRNVQCRPTQVQLSAISTLYLEIVRKKPLKNYQTLEDH; GFR-binding peptide) [compound 9] | 19 | – | – |
| 17 (CASAAPSSVPQKLNAISMLYFVGRKPKVLKKYRMIVRS; not fully specified; ends and bridges not checked) [compound 17] | 21 | – | – |
| 43 (CAAPASSSVPARLSPISILYIDAANNVVYKQYEDMVVEASG; not fully specified; ends and bridges not checked) [compound 43] | 27 | – | – |
| 2195 (MALPQPRGSSLSKAPVVVAPCMALKRVNIRSIVFEVLKTMNQNCIHETPN; Peptide reported in US20130333061, SEQ ID NO:158498) [compound 2195] | – | 82 | – |
| 2175 (VGAAWWLREQGSPINTLAVPA; Peptide reported in WO2013040142, SEQ ID NO:133294) [compound 2175] | – | 88 | – |
| 2209 (MRTESTPTTASAISYECLWSPPSNEAAKLHFDS; Peptide reported in US20070083334, SEQ ID NO:966410) [compound 2209] | – | 94 | – |
| 2212 (CCAPTQLSAISVLYFDDSSNVILKKYRNMVVRACGCR; Comparative sequence) [compound 2212] | – | 82 | – |
| 2252 (VPQAAEPLPMLYYDKGVVTYEQLSNAAVRS; GFR-binding peptide) [compound 2252] | – | – | STRO-1 expression (%) [2]: 19% |
| 46 (CPARLSPISLLYIDAANNVVYKQYEDM; GFR-binding peptide) [compound 46] | 19 | – | – |
| 41 (CGIPEPSSVPEKMSSLSILFFDENKNVVLKVYPNM; not fully specified; ends and bridges not checked) [compound 41] | 22 | – | – |
| 2182 (VPTELSPISLLYLDEFEKVTLKNYQDMVVDG; Peptide reported in US20120244575, SEQ ID NO:4324) [compound 2182] | – | 87 | – |
| 2177 (VPTKLEPISVLYKDDMGVPTLKYHYEGMAVSECGCR; Peptide reported in US8969040, SEQ ID NO:89) [compound 2177] | – | 81 | – |
| 2245 (APTLLNAISMLYFNDKQQIILKKYRLLVVR; GFR-binding peptide) [compound 2245] | – | – | STRO-1 expression (%) [2]: 22% |
| 2206 (CIPKPSSAPTELSAISMLYL; Peptide reported in WO2009151288, SEQ ID NO:2) [compound 2206] | – | 83 | – |
| 1 (CKVPKPSSAPTQLSAISTLYLDEYDKVVLKNYQNMVVRA; not fully specified; ends and bridges not checked) [compound 1] | 26 | – | – |
| 38 (CVPTEERSVKVAKVRIKPHQGQHKEVQV; GFR-binding peptide) [compound 38] | 23 | – | – |
